Experimental data taken from patent US20250127165A1, “USE OF 2-AMINO-3-PHENYLBUTYRIC ACID OR 2,6-DIAMINO-3-METHYLHEXANOIC ACID AS PLANT IMMUNE RESISTANCE INDUCER” (NANJING TIANNONG BIOTECHNOLOGY CO., LTD., priority 2021, published 2025).

Legend:
[1] = system: tomato spotted wilt virus; assay: Induced resistance of tobacco to tomato spotted wilt virus infection; type: in vivo, Nicotiana benthamiana; details: for viral protein content: leaves 3 days after inoculation, Western blot grey scale
Protocol: Tomato spotted wilt virus was obtained from Yunnan Province, China. The initial virus source was stored in a refrigerator at −80° C., and inoculated on the leaves of Nicotiana benthamiana using friction inoculation method to activate the virus. The virus plasmids were extracted and transformed with competent cells of Escherichia coli. The competent cells were coated on a resistant plate for culture. Single colonies were picked for PCR screening, and positive colonies were selected for sequencing and subsequent plasmid extraction. The plasmids with normal sequencing results were added to competent cells of Agrobacterium sp, and Agrobacterium was transformated by electroporation. A solution of the transformed Agrobacterium was coated on the corresponding resistant screening plate, and cultured at 28° C. (+1° C.) for 48 h. Single colonies of the Agrobacterium on transformation plate were picked, placed in 5 mL of LB medium with the corresponding resistance, and cultured overnight at 28° C., 180 rpm. The bacterial cells were collected by centrifugation at 6,000 rpm for 2 min, suspended with a treatment solution (10 mM MgCl2, 10 mM MES, and 10 μM Acetosyringone) until the OD600 value of the suspension was 0.5. The suspension was treated at 28° C. in the dark for 3 hours for later use. 2-amino-3-phenylbutyric acid was dissolved in distilled water and then gradiently diluted with distilled water into solutions of 0 nM, 0.1 nM, 1 nM, and 10 nM. Nicotiana benthamiana seeds were planted in small pots and incubated at 22° C. (+1° C.), 12 h/12 h light for 5 weeks. Healthy tobacco plants (preferably with 8-10 leaves) were selected and treated with the 2-amino-3-phenylbutyric acid solutions of the above concentrations by spraying on the stems and leaves, and repeated the treatment at 24-hour intervals for a total of two treatments. After 24 hours, a uniform concentration of Agrobacterium solution was extracted with a 1 mL syringe, the injection port of the syringe was pressed directly on the small hole on the back of the tobacco leaf, and the bacterial solution was slowly pushed in order to infiltrate soak the entire leaf. The infiltrated tobacco was moved to an environment of 24° C. (+1° C.), 12 h/12 h light for incubation. After 3 days, microscopic observation was performed and recorded. At the same time, the samples were taken, and the gray scale of protein bands was analyzed by Western blot combined with Image J software to determine the relative protein content of virus in leaves. After 15 days, the disease of tobacco leaves was observed and the disease index was recorded with reference to “grade and investigation method of tobacco diseases and insect pests” (GB/T 23222-2008) with the following formulas: […]
Grading standard of Tomato spotted wilt virus disease (grading and investigation were conducted per plant): • Grade 0: the whole plant is disease free; • Grade 1: heart leaves have clear veins or slightly mosaic, and there is no obvious dwarfing of diseased plants; • Grade 3: one-third of the leaves are mosaic without deformation, or the diseased plant is dwarfed to three quarters or more of the normal plant height; • Grade 5: one-third to one-half of the leaves are mosaic, or a few leaves are deformed, or the main veins become black, or the diseased plant is dwarfed to two-thirds to three-quarters of the normal plant height; • Grade 7: one-half to two-thirds of the leaves are mosaic or deformed, or a few main and lateral veins become necrotic, or the diseased plant is dwarfed to one-half to two-thirds of the normal plant height; • Grade 9: the leaves of the whole plant are mosaic, severely deformed or necrotic, or the diseased plant is dwarfed to one-half or […] of the normal plant height.

wheat powdery mildew = assay: Induced resistance of wheat seedlings to powdery mildew infection (pot test); type: in vivo, wheat (NAU0686); details: for disease index / relative immunization effect: concentration higher than 1,000 nM
Protocol: 2-amino-3-phenylbutyric acid was dissolved in distilled water and then gradiently diluted with distilled water into solutions of 10 nM, 100 nM, 1,000 nM, and 10,000 nM, and a blank control was set up. After germination, wheat (NAU0686) seeds were planted in sterilized soil culture pot, and cultured in a greenhouse at 23° C. (+1° C.) and 12-h light/dark conditions. When the seedlings grew to the 1-leaf-1-heart stage, a solution of 2-amino-3-phenylbutyric acid at the above concentrations was sprayed onto the stems and leaves of wheat seedlings, and repeated the treatment at 24-hour intervals for a total of two treatments. After 24 hours, fresh wheat powdery mildew spores were uniformly sprinkled onto the wheat leaves, and each treatment comprised three pots of seedlings, with 20 plants per pot. After 10 days, the disease grade of wheat in each treatment group was investigated, and the morbidity degree was recorded according to the grading standard of wheat powdery in the “Pesticides-Guidelines for the Field Efficacy Trails” (I), and the disease index and the relative immunization effect were calculated in the same manner as those of tomato spotted wilt.
Grading Standard of Wheat Powdery Mildew (per leaf): • Grade 1: The area of diseased spots accounts for 5% or less of the whole leaf area; • Grade 3: The area of diseased spots accounts for 6%-15% of the whole leaf; • Grade 5: The area of diseased spots accounts for 16%-25% of the whole leaf; • Grade 7: The area of diseased spots accounts for 26%-50% of the whole leaf; • Grade 9: The area of diseased spots accounts for 50% or more of the whole leaf area.

cotton (Sikang 1) = assay: Induced resistance of cotton to salt stress (100 mM NaCl); type: in vivo; details: three days
Protocol: The experimental material was “Sikang 1” cotton, which was hydroponic cultured in a 500 mL plastic cup and ½ Hoagland nutrient solution was changed every three days. When the cotton seedling grew until the second true leaf fully unfolded, the leaf surface was sprayed with 2-amino-3-phenylbutyric acid solution. The concentrations used in this experiment were 0, 1, 10, 100, and 1,000 nM, and 0.02% Tween 20 was added as surfactant. The spraying was repeated once every 24 hours for a total of 2 times. On the second day after the treatment, NaCl was added to the ½ Hoagland nutrient solution to a final concentration of 100 mM to perform salt stress treatment. Each treatment was performed in triplicate. After three days of salt stress, rehydration treatment was performed, the salt injury symptoms of cotton were observed, and calculate the salt injury index was calculated. The formula is as follows: […]

[2] = 0.1 nM spray, 15 days after inoculation
[3] = 1 nM spray, 15 days after inoculation
[4] = each treatment in the range 0.1-10 nM

CC(CCCN)C(N)C(=O)O (stereo not shown) [2,6-diamino-3-methylhexanoic acid]
relative immunization effect (%) ([1]; 0.1 nM): 53.08%
disease index [1, 2]: 42.64 ± 1.25 b
viral protein content ([1]; 0.1 nM): 0.41 ± 0.005 b
relative immunization effect (%) ([1]; 1 nM): 63.72%
disease index [1, 3]: 32.97 ± 1.26 c
viral protein content ([1]; 1 nM): 0.23 ± 0.002 c
relative immunization effect (%) ([1]; 10 nM): 70.94%
disease index [1, 4]: lower than 50
relative immune effect [1, 4]: ≥ 50%
relative immunization effect (%) (wheat powdery mildew; 10 nM): 28.13%
relative immunization effect (%) (wheat powdery mildew; 100 nM): 48.99%
relative immunization effect (%) (wheat powdery mildew; 1,000 nM): 65.26%
relative immunization effect (%) (wheat powdery mildew; 10,000 nM): 73.45%
disease index (wheat powdery mildew): lower than 50
relative immunization effect (wheat powdery mildew): more than 50%
mortality (%) (cotton (Sikang 1); 1 nM): 46%
salt injury index (%) (cotton (Sikang 1); 1 nM): 53%
mortality (%) (cotton (Sikang 1); 10 nM): 40%
salt injury index (%) (cotton (Sikang 1); 10 nM): 49%
mortality (%) (cotton (Sikang 1); 100 nM): 27%
salt injury index (%) (cotton (Sikang 1); 100 nM): 42%
mortality (%) (cotton (Sikang 1); 1,000 nM): 23%
salt injury index (%) (cotton (Sikang 1); 1,000 nM): 36%

CC(c1ccccc1)C(N)C(=O)O (stereo not shown) [2-amino-3-phenylbutyric acid]
relative immunization effect (%) ([1]; 0.1 nM): 35.77%
disease index [1, 2]: 48.77 ± 0.87 b
viral protein content ([1]; 0.1 nM): 0.33 ± 0.003 b
relative immunization effect (%) ([1]; 1 nM): 60.98%
disease index [1, 3]: 29.63 ± 1.51 c
viral protein content ([1]; 1 nM): 0.14 ± 0.008 c
relative immunization effect (%) ([1]; 10 nM): 69.23%
disease index [1, 4]: lower than 50
relative immune effect [1, 4]: ≥ 35%
relative immunization effect (%) (wheat powdery mildew; 10 nM): 19.88%
relative immunization effect (%) (wheat powdery mildew; 100 nM): 30.77%
relative immunization effect (%) (wheat powdery mildew; 1,000 nM): 55.38%
relative immunization effect (%) (wheat powdery mildew; 10,000 nM): 66.92%
disease index (wheat powdery mildew): lower than 50
relative immunization effect (wheat powdery mildew): more than 50%
mortality (%) (cotton (Sikang 1); 1 nM): 49%
salt injury index (%) (cotton (Sikang 1); 1 nM): 66.67%
mortality (%) (cotton (Sikang 1); 10 nM): 46%
salt injury index (%) (cotton (Sikang 1); 10 nM): 55%
mortality (%) (cotton (Sikang 1); 100 nM): 32%
salt injury index (%) (cotton (Sikang 1); 100 nM): 51%
mortality (%) (cotton (Sikang 1); 1,000 nM): 28%
salt injury index (%) (cotton (Sikang 1); 1,000 nM): 42%
